Reference: PMC8308585, “Design and Synthesis of Novel Thiazolo[5,4-d]pyrimidine Derivatives with High Affinity for Both the Adenosine A1 and A2A Receptors, and Efficacy in Animal Models of Depression” (Pharmaceuticals, 2021)
Where two headings read alike, the source gives them in different places.

Tests used:
human A1 AR = biological target: T1, human A1 AR (Homo sapiens, UniProt P30542); assay: Radioligand binding, displacement of [3H]-CCPA at hA1 AR in CHO cells; details: displacement of specific [3H]-CCPA binding, n = 3–6, mean ± SEM
T1 construct: expressed in transfected cells; host or cells: CHO cells
T1 sequence (P30542 1-326): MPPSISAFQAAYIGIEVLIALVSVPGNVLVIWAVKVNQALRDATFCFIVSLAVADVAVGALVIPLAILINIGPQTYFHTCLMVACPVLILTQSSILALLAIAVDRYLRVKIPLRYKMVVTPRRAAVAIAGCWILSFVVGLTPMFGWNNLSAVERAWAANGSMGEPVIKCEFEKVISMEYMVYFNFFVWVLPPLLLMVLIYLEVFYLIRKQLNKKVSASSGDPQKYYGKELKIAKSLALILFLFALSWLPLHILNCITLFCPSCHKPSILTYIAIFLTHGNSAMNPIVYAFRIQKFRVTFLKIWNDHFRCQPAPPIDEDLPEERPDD
Protocol: (§4) CHO cells, stably expressing hARs, were grown adherently and maintained in Dulbecco’s modified Eagle’s medium (DMEM) with nutrient mixture F12 supplemented with 10% fetal bovine serum (FBS), penicillin (100 µg/mL), streptomycin (100 µg/mL), sodium pyruvate (1 mM), and geneticin (0.1 mg/mL).
(§5) Briefly, cells were homogenized in cold lysis buffer (5 mM Tris HCl, 2 mM EDTA, pH 7.4), centrifuged at low speed spin for 10 min, and subsequently, the supernatant was spun at 37,000 rpm. Membrane pellet was resuspended in the specific buffer and stored at −80 °C.
(§6) The binding affinity of the novel compounds was evaluated using radioligand competition experiments in CHO cells stably transfected with hA1 AR, hA2A AR, and hA3 AR subtypes.

human A2A AR = biological target: T2, human A2A AR (Homo sapiens, UniProt P29274); assay: Radioligand binding, displacement of [3H]-NECA at hA2A AR in CHO cells;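 note: competition binding on membranes from CHO cells stably transfected with human A2A receptor, binding curves fitted by nonlinear regression in GraphPad Prism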
T2 construct: expressed in transfected cells; host or cells: CHO cells
T2 sequence (P29274 whole entry): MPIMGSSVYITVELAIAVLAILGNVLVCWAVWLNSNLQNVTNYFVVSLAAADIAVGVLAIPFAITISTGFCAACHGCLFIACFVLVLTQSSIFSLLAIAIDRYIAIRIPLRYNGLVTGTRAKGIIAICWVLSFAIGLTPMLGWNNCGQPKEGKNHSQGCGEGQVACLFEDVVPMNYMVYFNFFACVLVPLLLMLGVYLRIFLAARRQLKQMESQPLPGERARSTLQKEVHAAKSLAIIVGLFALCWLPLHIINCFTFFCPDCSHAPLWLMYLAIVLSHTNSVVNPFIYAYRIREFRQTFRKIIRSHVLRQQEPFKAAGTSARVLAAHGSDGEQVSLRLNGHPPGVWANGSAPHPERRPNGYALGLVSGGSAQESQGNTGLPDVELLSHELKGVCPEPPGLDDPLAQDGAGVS
Protocol: as §4, §5, §6

hA3 AR = biological target: T3, hA3 AR (Homo sapiens, UniProt P0DMS8); assay: Radioligand binding, displacement of [3H]-HEMADO at hA3 AR in CHO cells; details: displacement of specific [3H]-HEMADO binding, mean ± SEM
T3 construct: expressed in transfected cells; host or cells: CHO cells
T3 sequence (P0DMS8 1-318): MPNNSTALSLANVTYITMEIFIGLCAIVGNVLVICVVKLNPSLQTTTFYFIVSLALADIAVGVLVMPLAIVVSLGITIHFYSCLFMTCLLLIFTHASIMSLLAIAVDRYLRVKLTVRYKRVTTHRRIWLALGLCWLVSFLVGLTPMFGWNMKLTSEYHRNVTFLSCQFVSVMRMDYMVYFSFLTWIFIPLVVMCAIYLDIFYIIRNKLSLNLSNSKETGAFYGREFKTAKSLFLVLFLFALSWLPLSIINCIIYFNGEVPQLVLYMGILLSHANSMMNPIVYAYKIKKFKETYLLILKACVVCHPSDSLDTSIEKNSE
Protocol: as §4, §5, §6

hA2A AR = biological target: T4, hA2A AR (Homo sapiens, UniProt P29274); assay: Inhibition of NECA-induced increase of cAMP in CHO cells expressing hA2A AR (GloSensor cAMP assay); assay type: cell-based; details: inhibition of NECA-stimulated adenylyl cyclase activity, mean ± standard error
T4 construct: expressed in transfected cells; host or cells: CHO cells
T4 sequence (P29274 whole entry): as the sequence (P29274 whole entry) above
Protocol: (§1) Compound 18 was also tested to evaluate its antagonist behavior at the hA1 AR by assessing its ability to counteract NECA-induced decrease of cAMP accumulation.
(§2) The intrinsic activity of understudy compounds was evaluated through the GloSensor cAMP assay, as described previously. Briefly, cells stably expressing the hA1, hA2A, and hA2B ARs and the biosensor were incubated for 2 h at rt in equilibration medium containing 3% v/v GloSensor cAMP reagent stock solution, 10% FBS, and 87% CO2 independent medium. Afterward, cells were dispensed in the wells of a 384-well plate and the reference agonist NECA or the compounds, at different concentrations, were tested. The antagonist profile of compounds was evaluated by assessing their ability to counteract NECA-induced increase (A2A and A2B ARs) or decrease (A1 AR) of cAMP accumulation. Responses were expressed as percentage of the maximal relative luminescence units (RLU).
(§3) Binding data and concentration–response curves were fitted by a nonlinear regression with the Prism program (GraphPAD Prism 7 Software, San Diego, CA, USA). Each concentration was tested 3–5 times in duplicate and the Ki or IC50 (the concentration of antagonists that produces 50% inhibition of the agonist effect) values are given as the mean ± standard error (S.E.).

hA1 AR = biological target: T5, hA1 AR (Homo sapiens, UniProt P30542); assay: Counteraction of NECA-induced decrease of cAMP in CHO cells expressing hA1 AR (GloSensor cAMP assay); assay type: cell-based; details: NECA-stimulated activity in CHO cells expressing hA1 AR, mean ± standard error
T5 construct: expressed in transfected cells; host or cells: CHO cells
T5 sequence (P30542 1-326): T1 sequence (P30542 1-326)
Protocol: as §1, §2, §3

mice = assay: Sucrose preference test, LPS-induced anhedonia; assay type: in vivo, mouse; details: for Sucrose Preference (%), 6 h / Sucrose Preference (%), 24 h: LPS 1.25 mg kg^−1 i.p. mice; for Sucrose Preference (%), 6 h: 6 h after LPS, vehicle + LPS 42.3 ± 3.1; for Sucrose Preference (%), 24 h: 24 h after LPS, vehicle + LPS 38.0 ± 5.6
Protocol: Anhedonia, or the inability to experience pleasure, is a common symptom of depression. The mood regulatory role of 18 was studied against anhedonia evaluated in the sucrose preference test in animals treated with lipopolysaccharide (LPS), a model of neuroinflammation-induced depressive-like syndrome. Compound 18 (10 mg kg^−1 and 30 mg kg^−1) was daily p.o administered for five consecutive days. Twenty-four hours after the last 18 treatment, LPS 1.25 mg kg^−1 was intraperitoneally injected. Immediately after LPS injection, mice were placed in cages equipped with two bottles: a bottle of 2% sucrose solution and a bottle of water (unsweetened tap water). The consumption of the 2% sucrose solution was evaluated 6 h and 24 h after LPS injection. Amitriptyline (15 mg kg^−1) was used as the reference drug administered following the same protocol.
Male CD-1 albino mice (22–25 g; Envigo, Varese, Italy) were housed in CeSAL (Centro Stabulazione Animali da Laboratorio, University of Florence, Florence, Italy) and used at least one week after their arrival. Animals were housed in 26 cm × 41 cm cages (12 mice each) and fed with a standard laboratory diet and tap water ad libitum. They were kept at 23 ± 1 °C with a 12 h light/dark cycle, light at 7 a.m. Compound 18 was administered per o.s. whereas amitriptyline was by a s.c. route following the most widely used approach reported in the literature.
Lipopolysaccharide (LPS) from Escherichia coli was purchased from Sigma-Aldrich, (Milan, Italy) freshly dissolved in sterile saline, and injected intraperitoneally (i.p.) at the dose of 1.25 mg kg^−1 [49] after five consecutive days of treatment with compound 18, 1 h after the last administration of the compound. Behavioral tests were performed before 6 h and 24 h after LPS administration.
Mice were placed in cages equipped with a couple of bottles, one containing 2% sucrose solution, the second with water (unsweetened tap water). The consumption of the 2% sucrose solution was evaluated 6 h and 24 h after the beginning of the experiment. The preference index was calculated according to the following formula: preference index = volume consumed sucrose solution/(volume consumed sucrose solution + volume consumed water).
Behavioral tests were performed by visual observation by researchers blinded to the treatments. Results were expressed as means ± SEM, variance was analyzed by ANOVA. A Bonferroni’s significant difference procedure was used as post-hoc comparison. p values of less than 0.05 and 0.01 were considered significant. Data were analyzed using the “Origin 8.1” software.

[1] = 10 mg kg^−1 p.o. daily for 5 days
[2] = 30 mg kg^−1 p.o. daily for 5 days

Work on `Nc1nc(-c2ccco2)nc2sc(Cc3ccccc3F)nc12` [compound 18, 2-(2-Fluorobenzyl)-5-(furan-2-yl)thiazolo[5,4-d]pyrimidin-7-amine] yielded a Ki (human A1 AR) of 1.9 ± 0.08 nM, a Ki (human A2A AR; displacement of specific [3H]-NECA binding, CHO cells, mean ± SEM, read-out: hA2A Ki) of 0.06 ± 0.02 nM and a Ki (human A2A AR; hA2A AR, as listed in Table 3, read-out: pKi A2A (converted)) of 0.0646 nM. For the same compound, the Ki (hA3 AR) was 93.1 ± 2.8 nM, the IC50 (hA2A AR) was 14 ± 3.4 nM and the IC50 (hA1 AR) was 360 nM. The “Sucrose Preference (%), 6 h” value (mice; [1]) was 48.9 ± 6.7%, the “Sucrose Preference (%), 24 h” value (mice; [1]) was 39.7 ± 3.7% and the “Sucrose Preference (%), 6 h” value (mice; [2]) was 67.3 ± 1.6 %. For the same compound, the “Sucrose Preference (%), 24 h” value (mice; [2]) was 64.9 ± 2.6 % and the “Anhedonia-like behavior induced by LPS, preference index (in words)” value (mice; mouse, 30 mg kg^−1 p.o. daily for 5 days) was “able to revert the anhedonia-like behavior induced by LPS comparably to the effect of amitriptyline”.
